Source: patent publication US12320800B2, “High-throughput automation of organoids for identifying therapeutic strategies” (UNIVERSITY OF WASHINGTON, priority 2018, dated 2025)
pKd: −log10 of the molar value. Converted amounts (≈) assume the structure as drawn.

Key:
[1] = test system: PKD1−/− and PKD2−/− mutant organoids; experiment: Prophylactic effect of myosin activators on cyst formation in PKD organoids in suspension; type: cell-based, human
From the text: Cyst formation. In adherent cultures (untreated), ‘cysts’ were identified as large, balloon-like, translucent structures that swayed in response to agitation. Flat rings and dilated tubules were not counted as cysts and occasionally appeared even in non-PKD controls. […] Wells were imaged using a Nikon TiE inverted wide-field microscope and cysts were quantified using ImageJ cell counter. To generate large cysts in suspension, adherent organoids were microdissected with a 23-gauge syringe needle from 24-well plates on an inverted phase-contrast microscope, and carefully transferred using a transfer pipette into a low-adhesion 6-well plate (Corning) containing 2 ml RB. The organoids were isolated on the twenty-first day of differentiation, before cysts formed. RB media was changed by gravity every three days, and cystogenesis was assessed at two weeks after replating.
EMD was efficient at rescuing cyst formation at the lowest dose tested (3 μM) and worked in both PKD1^−/− and PKD2^−/− mutant organoids.

[2] = test system: late-stage PKD organoids; experiment: Regression of pre-existing cysts in late-stage PKD organoids; type: cell-based, human; conditions: one week
From the text: Reduction of pre-existing cysts would be a major advantage over tolvaptan. In an acute setting, EMD could be used to reduce pain from swollen cysts, and in a chronic setting it could potentially reverse the course of disease.

[3] = test system: PKD organoids; experiment: Live-dead viability analysis of PKD organoids after EMD treatment; type: cell-based, human; conditions: 10 μM for two weeks
Procedure: To assess potential toxicity in human organoids, morphology was examined by phase-contrast microscopy during the treatment time course and performed a live-dead analysis of organoids at the endpoint of treatment (10 μM EMD for two weeks).

[4] = test system: PKD1RC/RC mouse; experiment: EMD pilot trial in PKD1RC/RC mouse; type: in vivo; conditions: for survival, distress and adverse effects: 5 mg/kg
Procedure: Efficacy In Vivo: To reproduce EMD's effects in an animal model, small pilot trial was performed in the PKD1RC/RC mouse. Animals at five months of age, a time point where cysts have already formed, were injected intraperitoneally with EMD four times over 2.5 weeks (FIG. 24A). EMD was dissolved in 400 μL PBS solution at 5 mg/kg (˜25 μM in mouse blood).
These animals were sacrificed and analyzed their kidney tissue.

[5] = target: myosin motor domain; conditions: allosteric pocket of the myosin motor domain; cited from earlier work
[6] = target: β-cardiac myosin (Homo sapiens, UniProt P12883); conditions: read-out: AC50, actomyosin ATPase activity; cited from earlier work
Sequence of β-cardiac myosin (P12883 whole entry): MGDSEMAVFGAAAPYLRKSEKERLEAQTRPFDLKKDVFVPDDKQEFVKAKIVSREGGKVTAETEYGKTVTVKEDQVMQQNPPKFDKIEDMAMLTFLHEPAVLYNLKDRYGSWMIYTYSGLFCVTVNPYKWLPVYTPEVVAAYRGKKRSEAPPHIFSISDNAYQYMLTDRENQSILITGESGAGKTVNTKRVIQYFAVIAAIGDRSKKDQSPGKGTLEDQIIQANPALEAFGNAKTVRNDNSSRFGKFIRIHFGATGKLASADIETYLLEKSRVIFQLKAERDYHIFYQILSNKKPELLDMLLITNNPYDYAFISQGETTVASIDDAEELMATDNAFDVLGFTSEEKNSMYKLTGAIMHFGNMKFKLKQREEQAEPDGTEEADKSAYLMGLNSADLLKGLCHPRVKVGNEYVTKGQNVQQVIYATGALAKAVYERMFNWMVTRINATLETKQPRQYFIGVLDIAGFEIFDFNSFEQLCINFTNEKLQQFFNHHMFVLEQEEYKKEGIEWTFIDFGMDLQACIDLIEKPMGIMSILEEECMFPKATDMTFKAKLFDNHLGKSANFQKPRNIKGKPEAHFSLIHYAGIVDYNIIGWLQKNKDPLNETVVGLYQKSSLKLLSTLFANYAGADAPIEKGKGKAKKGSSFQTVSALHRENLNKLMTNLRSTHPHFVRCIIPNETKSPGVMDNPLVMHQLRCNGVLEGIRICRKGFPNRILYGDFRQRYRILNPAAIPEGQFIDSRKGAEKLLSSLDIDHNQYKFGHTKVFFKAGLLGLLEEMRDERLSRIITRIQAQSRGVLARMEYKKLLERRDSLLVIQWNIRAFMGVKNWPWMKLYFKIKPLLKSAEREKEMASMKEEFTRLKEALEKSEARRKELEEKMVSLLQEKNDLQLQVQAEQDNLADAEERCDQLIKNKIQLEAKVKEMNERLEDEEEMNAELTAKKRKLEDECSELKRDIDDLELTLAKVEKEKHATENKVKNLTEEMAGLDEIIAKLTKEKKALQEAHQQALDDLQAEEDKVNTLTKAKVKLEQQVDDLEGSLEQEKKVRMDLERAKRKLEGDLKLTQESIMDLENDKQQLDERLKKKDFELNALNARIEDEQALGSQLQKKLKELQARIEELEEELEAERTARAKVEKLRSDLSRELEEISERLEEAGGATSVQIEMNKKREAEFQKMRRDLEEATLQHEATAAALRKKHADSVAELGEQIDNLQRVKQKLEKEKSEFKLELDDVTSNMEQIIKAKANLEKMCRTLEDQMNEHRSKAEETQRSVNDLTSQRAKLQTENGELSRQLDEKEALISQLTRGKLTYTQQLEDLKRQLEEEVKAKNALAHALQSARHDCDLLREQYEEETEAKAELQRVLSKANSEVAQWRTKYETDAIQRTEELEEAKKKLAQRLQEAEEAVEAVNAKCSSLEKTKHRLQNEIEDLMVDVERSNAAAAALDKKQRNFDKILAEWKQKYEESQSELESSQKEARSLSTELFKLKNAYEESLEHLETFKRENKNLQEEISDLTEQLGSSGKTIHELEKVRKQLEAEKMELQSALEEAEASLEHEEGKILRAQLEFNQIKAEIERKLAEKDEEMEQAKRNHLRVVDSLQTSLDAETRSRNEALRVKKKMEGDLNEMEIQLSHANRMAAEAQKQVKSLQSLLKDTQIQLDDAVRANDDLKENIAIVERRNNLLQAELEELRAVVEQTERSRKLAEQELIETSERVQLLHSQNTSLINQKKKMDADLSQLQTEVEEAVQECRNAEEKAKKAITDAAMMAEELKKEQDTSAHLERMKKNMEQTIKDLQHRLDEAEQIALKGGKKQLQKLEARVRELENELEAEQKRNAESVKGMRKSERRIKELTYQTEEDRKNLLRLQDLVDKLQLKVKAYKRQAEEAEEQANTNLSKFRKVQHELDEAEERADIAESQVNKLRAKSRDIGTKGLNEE
Sequence of β-cardiac myosin (P08590 whole entry partner): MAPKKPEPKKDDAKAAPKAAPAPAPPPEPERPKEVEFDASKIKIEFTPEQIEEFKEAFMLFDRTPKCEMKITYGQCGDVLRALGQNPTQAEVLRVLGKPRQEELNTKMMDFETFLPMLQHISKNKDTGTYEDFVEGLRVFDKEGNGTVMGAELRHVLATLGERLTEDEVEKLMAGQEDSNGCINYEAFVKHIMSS

[7] = test system: skeletal muscle myosin; conditions: read-out: AC50, actomyosin ATPase activity; cited from earlier work
[8] = test system: non-cardiac myosin II; conditions: cited from earlier work
[9] = test system: myosin; conditions: Table 5 listing; cited from earlier work
[10] = canines, orally administered, optimized for dissolution; cited from earlier work
[11] = test system: liver cells; conditions: in vitro; cited from earlier work
[12] = cited from earlier work
[13] = expected value, WT control or EMD, Aim 1
[14] = 5 mg/kg intraperitoneally, four times over 2.5 weeks
[15] = high dose (5 mg/kg) applied repeatedly

COc1ccc(C(=O)N2CCCc3cc(C4=NNC(=O)SC4C)ccc32)cc1OC (single isomer, unassigned; (+)) [EMD, (+)-5-(1-(3,4-Dimethoxybenzoyl)-1,2,3,4-tetrahydroquinolin-6-yl)-6-methyl-3,6-dihydro-2H-1,3,4-thiadiazin-2-one]
lowest dose tested, efficient at rescuing cyst formation ([1]; PKD1−/− and PKD2−/− mutant organoids): 3 µM | Cyst diameter (mm) [1, 13]: 0.12 ± 0.04 mm | Cystic organoids (%) [1, 13]: 15 ± 6% | formation and size of resultant cysts ([1]; pre-cystic organoids in suspension, versus untreated controls): effectively reduced the formation and size of the resultant cysts | efficacy on cysts in the presence of blebbistatin ([1]; with blebbistatin): effective even in the presence of blebbistatin | size of pre-formed cysts ([2]; late-stage PKD organoids (day 37), 5 μM): acute reduction in the size of pre-formed cysts | toxicity at these doses ([2]; late-stage PKD organoids): No overt toxicity | toxicity (phase-contrast morphology and live-dead analysis) [3]: no significant toxicity | blood urea nitrogen levels (BUN) [4, 14]: reduced | kidney weight [4, 14]: reduced | superficial (renal cortical) cysts by gross morphology ([4]; 5 mg/kg intraperitoneally, four times over 2.5 weeks, five months of age): noticeably reduced superficial (renal cortical) cysts | BUN [4, 13]: 20 ± 5 mg/dL | kidney weight [4, 13]: 0.30 ± 0.1 g | alpha-SMA+ area (%) ([4]; expected value, WT control or EMD, Aim 2): 25 ± 4% | fibrosis in the kidneys [4, 15]: No fibrosis was observed | survival, distress and adverse effects [4, 15]: no adverse effects or mortality | survival, distress and adverse effects ([4]; mouse, in vivo): all animals survived, and none showed any signs of distress | acute tubular necrosis, proximal tubules (LTL+) ([4]; treated kidneys): no evidence of acute tubular necrosis | cyst size in kidney sections ([4]; treated kidneys): smaller cysts | expression of smooth muscle alpha-actin ([4]; treated kidneys): reduced expression | pKd [5]: 5.14 | AC50 [6]: 7 µM | AC50 [7]: 15.1 µM | increase of non-cardiac myosin II activity [8]: three-fold | effect [9]: ↑ myosin | Tmax [10]: ~2.5 h | average Cmax [10]: ~40 ng/mL | metabolism by liver cells [11]: metabolized by liver cells into demethylated and/or hydroxylated forms by CYP-dependent mechanisms | aqueous solubility [12]: 5 µg/mL (≈ 11.8 µM)
